Measured values: US20260092061A1, “COMPOUNDS FOR TARGETED PROTEIN DEGRADATION” (Amphista Therapeutics Limited, priority 2022, published 2026)

Tests used:
BRD9 [1] = biological target: T1, BRD9 (Homo sapiens, UniProt Q9H8M2); assay: Degradation of BRD9 (IF), immunofluorescence in MV4-11 cells, 24 hours (Assay Protocol 2); type: cell-based; set-up: A suspension of MV4-11 cells (ATCC CRL-9591) was prepared; host or cells: MV4-11
T1 sequence (Q9H8M2 1-597): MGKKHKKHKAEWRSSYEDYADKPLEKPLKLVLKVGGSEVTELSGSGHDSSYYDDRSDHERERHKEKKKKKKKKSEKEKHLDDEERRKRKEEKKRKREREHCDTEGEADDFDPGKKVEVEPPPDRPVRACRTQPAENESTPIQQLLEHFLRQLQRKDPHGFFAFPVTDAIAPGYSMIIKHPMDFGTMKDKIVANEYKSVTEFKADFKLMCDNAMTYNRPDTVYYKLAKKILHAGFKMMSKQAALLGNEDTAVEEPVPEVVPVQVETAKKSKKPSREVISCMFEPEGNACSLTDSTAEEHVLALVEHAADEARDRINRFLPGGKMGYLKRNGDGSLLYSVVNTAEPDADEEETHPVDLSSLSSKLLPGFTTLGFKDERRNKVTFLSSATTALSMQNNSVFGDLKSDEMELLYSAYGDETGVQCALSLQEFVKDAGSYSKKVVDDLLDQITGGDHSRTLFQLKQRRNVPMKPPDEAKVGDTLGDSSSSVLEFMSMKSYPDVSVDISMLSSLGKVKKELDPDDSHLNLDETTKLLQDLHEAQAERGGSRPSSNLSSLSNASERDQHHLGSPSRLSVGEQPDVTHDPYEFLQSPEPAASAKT
Summary of the method: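 MV4-11 cells treated with compound 24 h at 37° C., then fixed, permeabilised and immunostained for BRD9 (anti-BRD9 E4Q3F, Alexa 647 secondary, Hoechst counterstain). High-content imaging quantified nuclear BRD9 signal; % BRD9 remaining normalised to DMSO and 100 nM CFT-8634 controls.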

BRD9 [2] = biological target: T1, BRD9; assay: BRD9 degradation, HiBiT-BRD9 KI HEK293 (LgBiT) cells, NanoGlo Lytic Endpoint assay (Assay Protocol 1); type: cell-based; details: BRD9 degradation; for Dmax / Dmax at 1 µM: HEK293; for Dmax: read-out: Dmax; for Dmax at 1 µM: 1 μM compound at 6 h of treatment, read-out: Assay 1 Dmax
Summary of the method: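 HiBiT-tagged BRD9 knock-in HEK293 (LgBiT) cells exposed to compounds for 6 h at 37 °C, 5% CO2. Residual BRD9 measured by HiBiT lytic luminescence. % BRD9 remaining normalised to DMSO-treated cells (high) and no-cell wells (low).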

[3] = Assay protocol 2, BRD9 degradation, read-out: DC50
[4] = MV4-11, Assay protocol 2, BRD9 degradation, read-out: Dmax
[5] = Assay protocol 1, read-out: DC50
[6] = MV4-11, 24 h, Table 2, BRD9 degradation (IF), Assay Protocol 2, MV4-11 cells, read-out: Assay 2 DCmax
[7] = Table 2, BRD9 degradation (IF), Assay Protocol 2, MV4-11 cells, read-out: Assay 2 DC50
[8] = Table 2, Assay Protocol 1, 6 h of treatment, read-out: Assay 1 DC50

Row | SMILES | DC50 (BRD9 [1]; [3]) | Dmax (BRD9 [1]; [4]) | DC50 (BRD9 [2]; [5]) | Dmax (BRD9 [2]; Assay protocol 1) | Dmax (BRD9 [1]; [6]) | DC50 (BRD9 [1]; [7]) | Dmax at 1 µM (BRD9 [2]; Table 2, Assay Protocol 1) | DC50 (BRD9 [2]; [8])
1 | COc1cc(-c2cn(C)c(=O)c(C)c2C)cc(OC)c1CN1CCN(Cc2cccc3c2CCN(C(=O)/C(C#N)=C\C(C)(C)CF)C3C)C2(CC2)C1 (mixture of isomers) [Compound B125, (E/Z)-2-(5-((7-(2,6-dimethoxy-4-(1,4,5-trimethyl-6-oxo-1,6-dihydropyridin-3-yl)benzyl)-4,7-diazaspiro[2.5]octan-4-yl)methyl)-1-methyl-1,2,3,4-tetrahydroisoquinoline-2-carbonyl)-5-fluoro-4,4-dimethylpent-2-enenitrile] | < 1.25 nM | > 75% | < 1.25 nM | > 75% | – | – | – | –
2 | COc1cc(-c2cn(C)c(=O)c(C)c2C)cc(OC)c1CN1CCN(Cc2cccc3c2CCN(C(=O)/C(C#N)=C/C(C)(C)N2CCN(C4COC4)CC2)C3C)C2(CC2)C1 (mixture of isomers) [Compound B126, (E/Z)-2-(5-((7-(2,6-dimethoxy-4-(1,4,5-trimethyl-6-oxo-1,6-dihydropyridin-3-yl)benzyl)-4,7-diazaspiro[2.5]octan-4-yl)methyl)-1-methyl-1,2,3,4-tetrahydroisoquinoline-2-carbonyl)-4-methyl-4-(4-(oxetan-3-yl)piperazin-1-yl)pent-2-enenitrile] | 1.25 to 10 nM | 70 to 75% | 1.25 to 10 nM | > 75% | – | – | – | –
3 | COc1cc(-c2cn(C)c(=O)c(C)c2C)ccc1OC1CCN(Cc2cccc3c2CCN(C(=O)/C(C#N)=C/C(C)(C)C)C3C)CC1 (mixture of isomers) [Compound B127, (E/Z)-2-(5-((4-(2-methoxy-4-(1,4,5-trimethyl-6-oxo-1,6-dihydropyridin-3-yl)phenoxy)piperidin-1-yl)methyl)-1-methyl-1,2,3,4-tetrahydroisoquinoline-2-carbonyl)-4,4-dimethylpent-2-enenitrile] | 1.25 to 10 nM | > 75% | 1.25 to 10 nM | > 75% | – | – | – | –
4 | CCCC(c1ccc(C(=O)N(C)CCCCC(=O)N2CCN(Cc3c(OC)cc(-c4cn(C)c(=O)c(C)c4C)cc3OC)CC2)cc1)N(C)C(=O)/C(C#N)=C/c1nccs1 (mixture of isomers) [Compound B181, (E/Z)-4-(1-(2-cyano-N-methyl-3-(thiazol-2-yl)acrylamido)butyl)-N-(5-(4-(2,6-dimethoxy-4-(1,4,5-trimethyl-6-oxo-1,6-dihydropyridin-3-yl)benzyl)piperazin-1-yl)-5-oxopentyl)-N-methylbenzamide] | 10 to 25 nM | 40 to 70% | – | 40 to 70% | – | – | – | –
5 | CCCC(c1ccc(C(=O)N(C)CCCCCCC(=O)N2CCN(Cc3c(OC)cc(-c4cn(C)c(=O)c(C)c4C)cc3OC)CC2)cc1)N(C)C(=O)/C(C#N)=C/c1nccs1 (mixture of isomers) [Compound B182, (E/Z)-4-(1-(2-cyano-N-methyl-3-(thiazol-2-yl)acrylamido)butyl)-N-(7-(4-(2,6-dimethoxy-4-(1,4,5-trimethyl-6-oxo-1,6-dihydropyridin-3-yl)benzyl)piperazin-1-yl)-7-oxoheptyl)-N-methylbenzamide] | 1.25 to 10 nM | 40 to 70% | 25 to 1000 nM | 40 to 70% | – | – | – | –
6 | CCCC(c1ccc(C(=O)N(C)CCCCCCCCC(=O)N2CCN(Cc3c(OC)cc(-c4cn(C)c(=O)c(C)c4C)cc3OC)CC2)cc1)N(C)C(=O)/C(C#N)=C/c1nccs1 (mixture of isomers) [Compound B183, (E/Z)-4-(1-(2-cyano-N-methyl-3-(thiazol-2-yl)acrylamido)butyl)-N-(9-(4-(2,6-dimethoxy-4-(1,4,5-trimethyl-6-oxo-1,6-dihydropyridin-3-yl)benzyl)piperazin-1-yl)-9-oxononyl)-N-methylbenzamide] | 1.25 to 10 nM | > 75% | 25 to 1000 nM | 40 to 70% | – | – | – | –
7 | CCCC(c1cccc(C(=O)N2CCN(Cc3c(OC)cc(-c4cn(C)c(=O)c(C)c4C)cc3OC)CC2)c1)N(C)C(=O)/C(C#N)=C/c1nccs1 (mixture of isomers) [Compound B184, (E/Z)-2-cyano-N-(1-(3-(4-(2,6-dimethoxy-4-(1,4,5-trimethyl-6-oxo-1,6-dihydropyridin-3-yl)benzyl)piperazine-1-carbonyl)phenyl)butyl)-N-methyl-3-(thiazol-2-yl)acrylamide] | 1.25 to 10 nM | 40 to 70% | – | 40 to 70% | – | – | – | –
8 | CCCC(c1cccc(CCC(=O)N2CCN(Cc3c(OC)cc(-c4cn(C)c(=O)c(C)c4C)cc3OC)CC2)c1)N(C)C(=O)/C(C#N)=C/c1nccs1 (mixture of isomers) [Compound B185, (E/Z)-2-cyano-N-(1-(3-(3-(4-(2,6-dimethoxy-4-(1,4,5-trimethyl-6-oxo-1,6-dihydropyridin-3-yl)benzyl)piperazin-1-yl)-3-oxopropyl)phenyl)butyl)-N-methy-3-(thiazol-2-yl)acrylamide] | 1.25 to 10 nM | > 75% | 10 to 25 nM | 40 to 70% | – | – | – | –
9 | CCCC(c1ccccc1CCC(=O)N1CCN(Cc2c(OC)cc(-c3cn(C)c(=O)c(C)c3C)cc2OC)CC1)N(C)C(=O)/C(C#N)=C/c1nccs1 (mixture of isomers) [Compound B186, (E/Z)-2-cyano-N-(1-(2-(3-(4-(2,6-dimethoxy-4-(1,4,5-trimethyl-6-oxo-1,6-dihydropyridin-3-yl)benzyl)piperazin-1-yl)-3-oxopropyl)phenyl)butyl)-N-methyl-3-(thiazol-2-yl)acrylamide] | < 1.25 nM | > 75% | 1.25 to 10 nM | > 75% | – | – | – | –
10 | COc1cc(-c2cn(C)c(=O)c(C)c2C)cc(OC)c1CN(C)C1CCN(C(=O)/C(C#N)=C/C23CC(C2)C3)CC1 (mixture of isomers) [Compound B187, (E/Z)-3-(bicyclo[1.1.1]pentan-1-yl)-2-(4-((2,6-dimethoxy-4-(1,4,5-trimethyl-6-oxo-1,6-dihydropyridin-3-yl)benzyl)(methyl)amino)piperidine-1-carbonyl)acrylonitrile] | 1.25 to 10 nM | > 75% | 1.25 to 10 nM | > 75% | – | – | – | –
11 | COc1cc(-c2cn(C)c(=O)c(C)c2C)cc(OC)c1CN1CCN(Cc2cccc3c2CCN(C(=O)/C(C#N)=C/C2(C)CC2)C3C)CC1 (mixture of isomers) [Compound C27, (E/Z)-2-(5-((4-(2,6-dimethoxy-4-(1,4,5-trimethyl-6-oxo-1,6-dihydropyridin-3-yl)benzyl)piperazin-1-yl)methyl)-1-methyl-1,2,3,4-tetrahydroisoquinoline-2-carbonyl)-3-(1-methylcyclopropyl)acrylonitrile] | > 1000 nM | 40 to 70% | > 1000 nM | 40 to 70% | – | – | – | –
12 | COc1cc(-c2cn(C)c(=O)c3cnccc23)cc(OC)c1CN1CCN(Cc2cccc3c2CCN(C(=O)/C(C#N)=C/c2nccs2)[C@@H]3C)CC1 (single isomer, unassigned) [Compound A14, (E/Z)-2-(5-((4-(2,6-dimethoxy-4-(2-methyl-1-oxo-1,2-dihydro-2,7-naphthyridin-4-yl)benzyl)piperazin-1-yl)methyl)-1-methyl-1,2,3,4-tetrahydroisoquinoline-2-carbonyl)-3-(thiazol-2-yl)acrylonitrile] | – | – | – | – | 40 to 70% | < 1.25 nM | 40 to 70% | < 1.25 nM
13 | COc1cc(-c2cn(C)c(=O)c3cnccc23)cc(OC)c1CN1CCN(Cc2cccc3c2CCN(C(=O)/C(C#N)=C/c2nccs2)[C@H]3C)CC1 (single isomer, unassigned) [Compound A15] | – | – | – | – | 40 to 70% | < 1.25 nM | 40 to 70% | 1.25 to 10 nM
14 | COc1cc(-c2cn(C)c(=O)c3cnccc23)cc(OC)c1CN1CCN(Cc2cccc3c2CCN(C(=O)/C(C#N)=C/C(C)(C)C)[C@@H]3C)CC1 (single isomer, unassigned) [Compound A25, (E/Z)-2-(5-((4-(2,6-dimethoxy-4-(2-methyl-1-oxo-1,2-dihydro-2,7-naphthyridin-4-yl)benzyl)piperazin-1-yl)methyl)-1-methyl-1,2,3,4-tetrahydroisoquinoline-2-carbonyl)-4,4-dimethylpent-2-enenitrile] | – | – | – | – | 40 to 70% | – | 40 to 70% | < 1.25 nM
